Source: patent US20100004275A1, “AGENT FOR SUPPRESSING DEVELOPMENT OF TOLERANCE TO NARCOTIC ANALGESICS” (KYOTO UNIVERSITY, priority 2004, published 2010)

Key:
[1] = tested on: ddY mice; assay: Tail-flick test, tolerance to morphine analgesic induced by repeated morphine, with V1 receptor antagonist i.c.v. (Example 2); type: in vivo; details: male ddY mice; antagonist 0.5, 5 or 10 ng i.c.v. + morphine hydrochloride 10 mg/kg s.c. twice a day for 5 days; 1st, 3rd and 5th days; FIGS. 2 to 4
Procedure: (§1) % MPE=100×[(Measured value after treatment−Measured value before treatment)[…](Cut-off value−Measured value before treatment)]
Male ddY mice (5- or 6-week old) were intracerebroventricularly (i.c.v.) given with 5 μl of physiological saline or a V1 receptor antagonist (0.5, 5 or 10 ng), and immediately after the administration, the mice were subcutaneously given with 10 mg/kg of morphine hydrochloride, which was repeated twice a day for 5 days to induce tolerance to morphine analgesic. The analgesic effect was evaluated by the tail-flick test on 1st, 3rd and 5th days after the administration on the basis of intensity of analgesic effect using % MPE and AUC (area under the time-reaction curve, Area Under the Curve). As the V1 receptor antagonist, the following three types of antagonists were used.

[2] = tested on: V1a receptor knockout mice, V1b receptor knockout mice, and control mice; assay: Tail-flick test, development of tolerance to morphine in V1a/V1b receptor knockout and control mice (Example 1); type: in vivo; details: 10 mg/kg s.c. once a day for 15 days, FIG. 1
Procedure: V1a receptor knockout mice (Neuroscience Letters, 356, pp. 195-198, 2004), V1b receptor knockout mice (J. Clin. Invest., 113, pp. 302-309, 2004), and control mice (body weight: about 30 g) were subcutaneously (s.c.) given with 10 mg/kg of morphine hydrochloride once a day, which was repeated for 15 days. The analgesic effect was evaluated by the tail-flick test on 1st, 5th, 9th, 12th and 15th days after the administration on the basis of the maximal possible effect (% MPE), which represents analgesic intensity and is calculated in accordance with the following equation.
as §1

Compound | effect on development of tolerance to morphine (% MPE and AUC) [1] | development of tolerance to analgesic effect (% MPE) ([2]; V1a receptor knockout mice) | development of tolerance to analgesic effect (% MPE) ([2]; V1b receptor knockout mice) | development of tolerance to analgesic effect (% MPE) ([2]; control mice)
[phenylacetyl, O-Me-D-Try, Arg, Lys]-vasopressin amide [PhAcALVP] | had no effect on the tolerance development | – | – | –
CN1CC[C@]23c4c5ccc(O)c4O[C@H]2[C@@H](O)C=C[C@H]3[C@H]1C5.Cl [morphine, morphine hydrochloride] | – | tolerance to morphine was developed | remarkable resistance against tolerance to morphine was observed | tolerance to morphine was developed
[β-mercapto-β,β-cyclopentamethylenepropionyl, O-Me-Tyr, Arg]-vasopressin [d(CH2)5Tyr(Me)AVP] | had no effect on the tolerance development | – | – | –
deamino-Pen, O-Me-Tyr, Arg]-vasopressin [dPenTyr(Me)AVP] | suppressed the development of tolerance | – | – | –
